This is an account of results in patent US20140234318A1, “TUMOR SPECIFIC OLIGOSACCHARIDE EPITOPES AND USE THEREOF” (GLYKOS FINLAND OY, priority 2002, published 2014).

The test system of experiment [1] is Helicobacter pylori. The experiment in a line: Receptor activity of oligosaccharides for Helicobacter pylori. The experiment is classed as binding. As to conditions: relative to the non-galactosylated receptor. On the procedure:
The structure is changed to 10-fold weaker receptor structure Galβ4GlcNAcβ3Galβ4GlcNAcβ3Galβ4Glc by incubating it with UDP-Gal and β4-galactosyltransferase from bovine milk. b) The oligosaccharide receptor GlcNAcβ3Galβ4GlcNAcβ3Galβ4Glc is incubated with GDP-Fuc and soluble human fucosyltransferase VI corresponding to major the fucosyltransferase from human milk. MALDI-TOF mass spectrometric analysis reveled a major peak corresponding to GlcNAcβ3Galβ4(Fucα3)GlcNAcβ3Galβ4Glc, the structure is confirmed by NMR-spectroscopy. c) Erythrocytes from a patient suffering from glycosylation deficiency causing high levels of terminal GlcNAc-structures including GlcNAcβ3Galβ4GlcβCer are incubated with radiolabeled UDP-Gal and βgalactosyltransferase. Transfer of labeled galactose on the cell surface is observed. The galactosylation of the cells reduces the reactivity of the cells with anti-GlcNAc-antibodies.

In experiment [2] the test system is Helicobacter pylori. The conditions noted are these: cited from earlier work.
Experiment [3] concerns endogenous galactosyltransferase activity of human serum. The experiment in a line: Activation of endogenous galactosyltransferase activity of human serum. In kind it is biochemical. Here is the method:
Fresh human blood sample was collected from blood group B-individual (5 ml). After clotting for 30 min it was centrifuged at +4° C., 2000 rpm for 25 minutes, and the serum was collected for experiments (2 ml, stored on ice).
Reactions were performed with 50 nmol of acceptor saccharide (GlcNAcβ1-3Galβ1-4GlcNAc, from enzymatic synthesis, purified by ion exchange and gel filtration, characterized by NMR and mass spectrometry), 5 nmol UDP-[^14C]Gal (mixture of nonlabelled and radioactive, radioactivity was 100 000 cpm) and 20 μl of fresh human serum (total volume was 20 μl). Reaction conditions were varied by adding cations and bovine milk β1,4-galactosyltransferase (β1,4GalT).

For experiment [4], the system named is IgG antibodies against specific carbohydrate epitopes in serum of cancer patients. The experiment in a line: ELISA of serum IgG antibodies binding to synthetic glycoconjugates. On the set-up: species or system human. The conditions noted are these: for serum antibody levels against the epitope, summary in words: IgG and IgM, group of four cancer patients. The source says: (§1) A group of four people with various stages of diagnosed cancer of the gastrointestinal tract or the ovary, was studied by analyzing serum samples for their concentrations of IgG and IgM antibodies against specific carbohydrate epitopes. The assay consisted of binding of specific antibodies from serum to synthetic glycoconjugates, washing, and then detecting the specifically bound antibody levels in ELISA with enzyme-labelled anti-human IgG or anti-human IgM secondary antibodies and quantitation of specific reaction products.
(An ELISA detects its analyte on a solid surface through an enzyme-linked reagent.)

For experiment [5], the system named is IgM antibodies against specific carbohydrate epitopes in serum of cancer patients. The experiment in a line: ELISA of serum IgM antibodies binding to synthetic glycoconjugates. On the set-up: species or system human.
Excerpt: as §1

Experiment [6] has as its system recombinant β1,4-galactosyltransferase similar to the enzyme described in (Ramakrishnan and Qasba, 2002). The experiment in a line: Transfer of modified galactosamine from UDP-GalN conjugates to terminal GlcNAc acceptor by modified galactosyltransferase. The experiment is classed as biochemical, bovine. As to conditions: MALDI-TOF MS of the product.
Experiment [7] concerns terminal GlcNAc residues in lung adenocarcinoma tissue sections. The experiment can be described thus: Labeling of terminal GlcNAc residues in tissue sections with UDP-GalN-biotin. Also on record: species or system human. As to conditions: streptavin-FITC, fluorescence microscopy.
Protocol: In a typical procedure, an oligosaccharide acceptor such as GlcNAcβ1-3Galβ1-4GlcNAcβ1-3Galβ1-4Glc, or deparaffinised formalin-fixed paraffin-embedded tissue sections, are incubated at + 37° C. with a reaction mixture containing 10 mM UDP-GalN-biotin, 160 U/l enzyme, 100 mM Tris-HCl, and 20 mM MnCl2. After washing, the biotin groups are visualised by standard methods in the art, using streptavidin or avidin coupled reagents, for example streptavidin-FITC.

On to `CC(=O)N[C@H]1[C@H](O[C@H]2[C@@H](O)[C@@H](CO)O[C@@H](O[C@H]3[C@H](O)[C@@H](NC(C)=O)[C@H](O[C@H]4[C@@H](O)[C@@H](CO)O[C@@H](O[C@H]5[C@H](O)[C@@H](O)C(O)O[C@@H]5CO)[C@@H]4O)O[C@@H]3CO)[C@@H]2O)O[C@H](CO)[C@@H](O[C@@H]2O[C@H](CO)[C@H](O)[C@H](O)[C@H]2O)[C@@H]1O` (stereo partly shown) [Galβ4GlcNAcβ3Galβ4GlcNAcβ3Galβ4Glc], for which, in the experiment on Helicobacter pylori [1], the “receptor strength for Helicobacter pylori, weaker than GlcNAcβ3Galβ4GlcNAcβ3Galβ4Glc” value is 10 fold.
As to `CC(=O)N[C@H]1[C@H](O[C@H]2[C@@H](O)[C@@H](CO)O[C@@H](O[C@H]3[C@H](O)[C@@H](O)C(O)O[C@@H]3CO)[C@@H]2O)O[C@H](CO)[C@@H](O[C@@H]2O[C@H](CO)[C@H](O)[C@@H](O[C@@H]3O[C@H](CO)[C@@H](O)[C@H](O)[C@H]3NC(C)=O)[C@H]2O)[C@@H]1O` (stereo partly shown) [GlcNAcβ3Galβ4GlcNAcβ3Galβ4Glc], in the experiment with Helicobacter pylori [2], the “receptor for Helicobacter pylori” value was “receptor for the gastric pathogen Helicobacter pylori”.
Take `[Cl][Mn][Cl]` [MnCl2]: the Product in experiment [3] (0.2 mM MnCl2, no external β1,4GalT) is given as 457 cpm; in experiment [3] (1 mM MnCl2, no external β1,4GalT), 1073 cpm; in experiment [3] (5 mM MnCl2, no external β1,4GalT), 566 cpm.
Regarding “GlcNAcβ1-2Manα1-6(GlcNAcβ1-2Manα1-3)Manβ1-4GlcNAcβ1-4(Fucα1-6)GlcNAcβ-N-Asn-R [Saccharide 1]”, the “serum antibody levels against the epitope, summary in words” value (from here on “serum antibody levels”) in experiment [4] is “elevated in one patient”. Also, the “antibody signal intensity from which the assay background has been subtracted” value (shortened to “antibody signal intensity”) in experiment [4] (Patient 1, IgG) stood at 0; in experiment [4] (Patient 2, IgG), 0; in experiment [4] (Patient 3, IgG) it was 0.006; in experiment [4] (Patient 4, IgG), 0; in experiment [5] (Patient 1, IgM), 0; in experiment [5] (Patient 2, IgM), 0. The “antibody signal intensity” value in experiment [5] (Patient 3, IgM) amounted to 0.01; in experiment [5] (Patient 4, IgM), 0.
For the molecule “GlcNAcβ1-3GalNAcα-O—CH2—R [Saccharide 5]”, the “serum antibody levels” value in experiment [4] is given as “identical pattern of antibody type response”. For the same molecule, the “antibody signal intensity” value in experiment [4] (Patient 1, IgG) is given as 0.017; in experiment [4] (Patient 2, IgG) it was 0.094; in experiment [4] (Patient 3, IgG) it was 0; in experiment [4] (Patient 4, IgG), 0; in experiment [5] (Patient 1, IgM), 0.125; in experiment [5] (Patient 2, IgM) it was 0.041. For the same molecule, the “antibody signal intensity” value in experiment [5] (Patient 3, IgM) worked out at 0.011; in experiment [5] (Patient 4, IgM), 0.056.
Take “GlcNAcβ1-6(Galβ1-3)GalNAcα-O—CH2—R [Saccharide 3]”: in experiment [4], the “serum antibody levels” value is recorded as “elevated in the whole patient group”. Moreover, the “antibody signal intensity” value in experiment [4] (Patient 1, IgG) is listed as 0.039; in experiment [4] (Patient 2, IgG), 0.078; in experiment [4] (Patient 3, IgG), 0; in experiment [4] (Patient 4, IgG) it was 0; in experiment [5] (Patient 1, IgM), 0.091; in experiment [5] (Patient 2, IgM), 0.008. The “antibody signal intensity” value in experiment [5] (Patient 3, IgM) is 0.068; in experiment [5] (Patient 4, IgM), 0.042.
Consider GlcNAcβ-O—CH2—R [Saccharide 4], for which the “serum antibody levels” value in experiment [4] was “Two patients showed elevated serum levels of mainly IgM and one patient mainly IgG”. For the same molecule, the “antibody signal intensity” value is listed as 0 in experiment [4] (Patient 1, IgG); 0.082 in experiment [4] (Patient 2, IgG); 0.013 in experiment [4] (Patient 3, IgG); 0 in experiment [4] (Patient 4, IgG); 0.159 in experiment [5] (Patient 1, IgM); 0.029 in experiment [5] (Patient 2, IgM). For the same molecule, the “antibody signal intensity” value turned out to be 0.122 in experiment [5] (Patient 3, IgM) and 0 in experiment [5] (Patient 4, IgM).
As to “uridine 5′-diphospho-N-(6-biotinamidohexanoyl)galactosamine [UDP-GalN-biotin]”, in experiment [6], the “transfer of the modified galactosamine residue to a terminal GlcNAc acceptor” value is “reacted”. For the same molecule, the “labeling of cancer cells in tissue sections” value in experiment [7] is given as “cancer cells could be labeled”.
